Experimental data as given in patent US20250177340A1, “Tartaric Acid Analogs and Uses Thereof” (Lapix Therapeutics, Inc., priority 2021, published 2025).
One block for each compound: values may come before it.

What was measured:
murine CD8+ T cells = assay: Murine CD8+ T-cell proliferation (CFSE), Example 6; format: cell-based, C57BL/6 mice; conditions: 30 mM, in absence of PS, ConA 10 μg/ml
Method: Preparation of test materials: TTA, compound A and compound B were formulated in RPMI media under aseptic conditions. The pH was adjusted to approximately 7.5 before dosing cells.
Tissue culture and dosing: Splenocytes of C57BL/6 mice were stained with CFSE and prepared, cultured, and dosed. Cells were seeded at 1×10^5 cells/well in a 96-well round-bottomed plate.
Controls: Two controls were used. A negative control dosed with 10 ng/ml IL2 was used, and a positive control dosed with 20 μg/ml ConA and 10 ng/ml IL2 was used.
Treatment: After ConA stimulation (10 μg/ml), cells were dosed with 30 mM compound A, B or C with or without 0.1 mM 30:70 PS:DMPC liposomes. All wells were dosed with 10 ng/ml of IL-2.

[1] = test system: T-cells isolated from spleens; assay: FoxP3/KLRG-1/CTLA4 in T-cells isolated from spleens of compound D-treated animals; format: in vivo; conditions: 2.5 mg IV daily for seven days
Method: Animals were treated with 2.5 mg of compound D IV daily for seven days. Upon completion of the treatment period, T-cells isolated from spleens of the animals were analyzed by flow cytometry.

Granzyme B and IFN-γ = assay: Dose-response of GranzymeB/IFN-γ double positivity in murine CD8+ T-cells, Example 9; format: cell-based, C57BL/6 mice; conditions: Mus musculus, T-cell
Method: A dose-response analysis of compounds B-E in murine CD8+ T-cells was conducted to evaluate the effect of dose on GranzymeB/IFN-γ double positivity.
Compound C, D and E were first dissolved in a small volume of DMSO before diluting to the final desired concentration.
Splenocytes from naïve C57BL/6 mice were stained with CFSE, prepared, cultured, and dosed. Cells were seeded at 2×10^5 cells/well. Negative control was dosed with 10 ng/ml IL-2. After ConA stimulation (10 μg/ml), cells were dosed with log 3 dilution of each compound from 3×10^−9 to 30 µM in triplicates. All wells were dosed with 10 ng/ml of IL-2.
Flow cytometer analysis was performed to assess percent CD8+ T-cells and percent activation by double staining for Granzyme B (GzmB) and IFN-γ as described in Example 7. Concentration versus response curve was fitted to a 4- or 5-parameter log-logistic model using the “dre” package in “R”. Both EC50 and EC90 were obtained by model fitting.

KLRG1 = assay: Percent KLRG1+ T-cells in spleens, single dose on Day 7 (Examples 17, 19, 20); format: in vivo, C57BL6 mice; conditions: for activity after oral administration (KLRG1+, PD1+ T-cells): single PO dose: E 2.5 mg, F 1 mg, G 1 mg; for percent KLRG1+ T-cells compared to untreated animals: single dose, E 0.1, 0.25, 1 mg IV or 2.5 mg PO, F 0.03-1 mg IV or 1 mg PO, G 0.1, 0.4, 1 mg IV or 1 mg PO
Method: (§1) Melanoma B16F10 cells were injected IV into C57BL6 mice on Day 0. On Day 7, mice were administered a single dose of 0.1 mg, 0.25 mg, or 1 mg of Compound E IV or 2.5 mg Compound E PO. One group was left untreated. Three mice at each time point were sacrificed, and their spleens were extracted. Percent KLRG1+ and PD-1^+ T-cells were quantified. Briefly, single-cell suspensions prepared from the extracted spleens were prepared and stained for KLRG1, PD-1 and CD8, and analyzed by flow cytometry.
as §1, with “of 0.03 mg,” for “of”, “0.3 mg” for “0.25 mg,”, “mg” for “mg of”, “F” for “E”, “1” for “2.5”
as §1, with “0.4” for “0.25”, “mg” for “mg of”, “G” for “E”, “1” for “2.5”

PD-1 = assay: Percent PD-1+ T-cells in spleens, single dose on Day 7 (Examples 17, 19, 20); format: in vivo, C57BL6 mice; conditions: E 0.1, 0.25, 1 mg IV or 2.5 mg PO, F 0.03-1 mg IV or 1 mg PO, G 0.1, 0.4, 1 mg IV or 1 mg PO
Method: as §1
as §1, with “of 0.03 mg,” for “of”, “0.3 mg” for “0.25 mg,”, “mg” for “mg of”, “F” for “E”, “1” for “2.5”
as §1, with “0.4” for “0.25”, “mg” for “mg of”, “G” for “E”, “1” for “2.5”

SMILES: O=C(O)[C@H](O)[C@@H](O)C(=O)OCc1ccccc1 [A, (2R,3R)-4-(benzyloxy)-2,3-dihydroxy-4-oxobutanoic acid]
- percent of CD8+ T-cell proliferation (murine CD8+ T cells): 64.4%

- EC50 (Granzyme B and IFN-γ; 4-parameter model): 4.1 nM
- EC90 (Granzyme B and IFN-γ; 4-parameter model): 50 nM
- EC50 (Granzyme B and IFN-γ; 5-parameter model): 3.5 nM
- EC90 (Granzyme B and IFN-γ; 5-parameter model): 39 nM
SMILES: O=C(O)[C@H](O)[C@@H](O)C(=O)OCCC1c2ccccc2-c2ccccc21 [Compound D, (2R,3R)-4-(2-(9H-fluoren-9-yl)ethoxy)-2,3-dihydroxy-4-oxobutanoic acid]
- CTA4+/CD8+ T-cells [1]: 0.27%
- FoxP3+ CD4+ T-cells [1]: 5.42%
- KLRG-1+/CD8+ T-cells [1]: 5.11%
- reduction in CTA4+/CD8+ T-cells [1]: 27%
- reduction in FoxP3+ CD4+ T-cells compared to control animals [1]: 58%
- reduction in KLRG-1+/CD8+ T-cells [1]: 80%
- Emax (Granzyme B and IFN-γ; FIG. 4, 5-parameter fit, read-out: maximal response (GzmB/IFN-γ double positive CD8+ T-cells)): 40%

SMILES: O=C(O)[C@H](O)[C@@H](O)C(=O)NCCn1c2ccccc2c2ccccc21 [Compound F, (2R,3R)-4-((2-(9H-carbazol-9-yl)ethyl)amino)-2,3-dihydroxy-4-oxobutanoic acid]
- activity after oral administration (KLRG1+, PD1+ T-cells) (KLRG1): effective after oral administration
- percent KLRG1+ T-cells compared to untreated animals (KLRG1): dose-dependent reduction
- percent PD1+ T-cells compared to untreated animals (PD-1): dose-dependent reduction

SMILES: O=C(O)[C@H](O)[C@@H](O)C(=O)NCCCc1ccccc1 [Compound G, (2R,3R)-2,3-dihydroxy-4-oxo-4-((3-phenylpropyl)amino)butanoic acid]
- activity after oral administration (KLRG1+, PD1+ T-cells) (KLRG1): effective after oral administration
- percent KLRG1+ T-cells compared to untreated animals (KLRG1): dose-dependent reduction
- percent PD1+ T-cells compared to untreated animals (PD-1): dose-dependent reduction
